≈ marks a conversion by molar mass, not a printed value.

Experiment [1] deals with T1, UDP-N-acetylmuramoylalanine--D-glutamate ligase (Escherichia coli K-12) (UniProt P14900).
T1 sequence (whole entry): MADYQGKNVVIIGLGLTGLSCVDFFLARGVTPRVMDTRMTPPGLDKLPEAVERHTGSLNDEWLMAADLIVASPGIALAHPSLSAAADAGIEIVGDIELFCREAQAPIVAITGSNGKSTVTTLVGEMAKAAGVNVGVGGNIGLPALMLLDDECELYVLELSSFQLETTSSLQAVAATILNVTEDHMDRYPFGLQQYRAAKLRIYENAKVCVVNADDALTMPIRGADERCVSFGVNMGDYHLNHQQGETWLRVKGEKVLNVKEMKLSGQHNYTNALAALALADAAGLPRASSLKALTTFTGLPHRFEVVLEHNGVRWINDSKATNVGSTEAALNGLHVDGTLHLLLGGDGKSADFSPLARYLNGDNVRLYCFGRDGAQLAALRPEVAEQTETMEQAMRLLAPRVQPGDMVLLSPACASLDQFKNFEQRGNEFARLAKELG
The experiment can be described thus: Inhibition of Escherichia coli MurD assessed as residual enzyme activity at 250 uM after 15 mins in presence of 0.005% Triton X-114 by Malachite green assay.

In experiment [2] the target is T2, UDP-N-acetylmuramoyl-L-alanyl-D-glutamate--2,6-diaminopimelate ligase (Escherichia coli (strain K12)) (UniProt P22188).
T2 sequence (whole entry): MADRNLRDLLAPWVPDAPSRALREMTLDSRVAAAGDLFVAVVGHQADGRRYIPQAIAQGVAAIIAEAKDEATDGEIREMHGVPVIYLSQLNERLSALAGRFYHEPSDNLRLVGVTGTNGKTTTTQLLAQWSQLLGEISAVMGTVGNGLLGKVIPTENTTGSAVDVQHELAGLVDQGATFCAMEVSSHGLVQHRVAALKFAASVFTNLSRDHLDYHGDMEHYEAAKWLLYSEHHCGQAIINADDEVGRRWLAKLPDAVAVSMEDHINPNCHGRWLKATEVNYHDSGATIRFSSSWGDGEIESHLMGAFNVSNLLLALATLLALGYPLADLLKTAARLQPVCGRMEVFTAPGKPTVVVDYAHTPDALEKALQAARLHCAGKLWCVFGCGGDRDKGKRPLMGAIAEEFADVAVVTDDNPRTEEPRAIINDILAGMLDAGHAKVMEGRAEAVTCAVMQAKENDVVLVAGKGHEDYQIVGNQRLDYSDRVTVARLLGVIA
Put plainly: Inhibition of Escherichia coli MurE assessed as residual enzyme activity at 250 uM after 15 mins in presence of 0.005% Triton X-114 by Malachite green assay.

Experiment [3] addresses UDP-N-acetylmuramate--L-alanine ligase (Escherichia coli K-12) (UniProt P17952). The experiment can be described thus: Inhibition of Escherichia coli MurC assessed as residual enzyme activity at 250 uM after 15 mins in presence of 0.005% Triton X-114 by Malachite green assay.
For experiment [4], the target named is T3, UDP-N-acetylmuramoyl-tripeptide--D-alanyl-D-alanine ligase (Escherichia coli K-12) (UniProt P11880).
T3 sequence (whole entry): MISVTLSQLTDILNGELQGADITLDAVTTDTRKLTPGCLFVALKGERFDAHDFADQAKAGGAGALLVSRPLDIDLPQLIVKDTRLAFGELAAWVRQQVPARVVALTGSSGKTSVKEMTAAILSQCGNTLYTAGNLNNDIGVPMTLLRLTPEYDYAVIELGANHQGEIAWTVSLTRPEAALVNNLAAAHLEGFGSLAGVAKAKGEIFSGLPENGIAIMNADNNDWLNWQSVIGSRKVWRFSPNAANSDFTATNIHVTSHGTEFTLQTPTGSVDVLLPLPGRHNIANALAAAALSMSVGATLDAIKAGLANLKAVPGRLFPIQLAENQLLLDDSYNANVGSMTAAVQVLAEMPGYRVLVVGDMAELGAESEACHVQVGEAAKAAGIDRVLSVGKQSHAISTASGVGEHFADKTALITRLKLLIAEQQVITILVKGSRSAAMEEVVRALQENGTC
The experiment can be described thus: Inhibition of Escherichia coli MurF assessed as residual enzyme activity at 250 uM after 15 mins in presence of 0.005% Triton X-114 by Malachite green assay.

The target in experiment [5] is T4, UDP-N-acetylmuramoyl-L-alanyl-D-glutamate--2,6-diaminopimelate ligase (Escherichia coli (strain K12), UniProt P22188).
T4 sequence (P22188 whole entry): T2 sequence (whole entry)
Put plainly: Inhibition of Escherichia coli MurE after 15 mins in presence of 0.005% Triton X-114 by Malachite green assay.

Experiment [6] addresses T5, UDP-N-acetylmuramoylalanine--D-glutamate ligase (Escherichia coli K-12, UniProt P14900).
T5 sequence (P14900 whole entry): T1 sequence (whole entry)
Put plainly: Inhibition of Escherichia coli MurD after 15 mins in presence of 0.005% Triton X-114 by Malachite green assay.

Experiment [7] relates to Staphylococcus aureus. The experiment can be described thus: microbe, parasite or virus in culture. Conditions: ATCC 29213.
Description: Antimicrobial activity against Staphylococcus aureus ATCC 29213 after 16 to 20 hrs
Experiment [8] relates to Enterococcus faecalis. Put plainly: Antimicrobial activity against Enterococcus faecalis ATCC 29212 after 16 to 20 hrs. It counts as functional.
The subject of experiment [9] is Haemophilus influenzae. The experiment can be described thus: Antimicrobial activity against Haemophilus influenzae ATCC 49766 after 20 to 24 hrs. It is filed as functional.
In experiment [10] the target is UDP-N-acetylmuramate--L-alanine ligase (Escherichia coli K-12, UniProt P17952). The experiment can be described thus: Inhibition of Escherichia coli MurC after 15 mins in presence of 0.005% Triton X-114 by Malachite green assay.
Chain of UDP-N-acetylmuramate--L-alanine ligase (P17952 whole entry): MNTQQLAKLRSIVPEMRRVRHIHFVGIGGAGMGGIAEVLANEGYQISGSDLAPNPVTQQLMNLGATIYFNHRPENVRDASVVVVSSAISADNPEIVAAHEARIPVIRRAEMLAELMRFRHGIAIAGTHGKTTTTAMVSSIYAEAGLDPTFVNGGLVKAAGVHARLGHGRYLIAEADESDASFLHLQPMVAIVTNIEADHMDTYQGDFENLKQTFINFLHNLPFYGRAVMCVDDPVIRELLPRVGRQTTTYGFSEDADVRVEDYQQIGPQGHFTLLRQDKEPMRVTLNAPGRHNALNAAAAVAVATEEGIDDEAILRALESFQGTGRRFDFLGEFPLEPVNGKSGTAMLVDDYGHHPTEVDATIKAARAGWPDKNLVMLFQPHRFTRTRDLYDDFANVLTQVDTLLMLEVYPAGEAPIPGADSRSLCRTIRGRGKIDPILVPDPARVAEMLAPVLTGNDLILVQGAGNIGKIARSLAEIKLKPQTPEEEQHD
Experiment [11] addresses T6, UDP-N-acetylmuramoyl-tripeptide--D-alanyl-D-alanine ligase (Escherichia coli K-12, UniProt P11880).
T6 sequence (P11880 whole entry): T3 sequence (whole entry)
The experiment can be described thus: Inhibition of Escherichia coli MurF after 15 mins in presence of 0.005% Triton X-114 by Malachite green assay.

The target in experiment [12] is T5, UDP-N-acetylmuramoylalanine--D-glutamate ligase. The experiment can be described thus: Competitive inhibition of Escherichia coli MurD using D-Glu substrate by steady-state enzyme kinetics assay.
The target is the same in experiment [13]. Put plainly: Partial non-competitive inhibition of Escherichia coli MurD using UMA substrate by steady-state enzyme kinetics assay.
For experiment [14] the target is unchanged. The experiment can be described thus: Partial un-competitive inhibition of Escherichia coli MurD using ATP substrate by steady-state enzyme kinetics assay.

Chain of UDP-N-acetylmuramate--L-alanine ligase (Escherichia coli K-12) (P17952 whole entry, looked up): as the sequence (P17952 whole entry) above

On to `CCc1ccc(N2C(=O)/C(=C\c3cc(C)n(C4CCCCC4)c3C)C(=O)NC2=S)cc1`, for which the Activity in experiment [1] stood at 100%; in experiment [2] it was 97%; in experiment [3], 92%; in [4] it was 75%.
Take `CCc1ccc(N2C(=O)NC(=O)/C(=C/c3cc(C)n(-c4cc(C(=O)O)cc(C(=O)O)c4)c3C)C2=O)cc1`: the Activity in experiment [1] turned out to be 81%; in experiment [3], 74%; in experiment [4], 75%. Further, the IC50 in [5] was 330 µM.
The matching figures for `O=C1NC(=S)N(c2ccc(Cl)cc2)C(=O)/C1=C\c1cc2ccccc2[nH]1`: 71%, 77%, 20% and 44 µM.
In the case of `O=C1NC(=S)N(c2ccc(Br)cc2)C(=O)/C1=C\c1ccc2c(c1)OCO2`, the Activity in experiment [1] is 91%; in experiment [2] it was 81%; in experiment [3] it was 120%; in experiment [4], 95%.
In the same order, the values of `O=C1N/C(=N\c2ccc(Br)cc2)S/C1=C/c1c[nH]c2ccccc12` are 102%, 90%, 87% and 75%.
Consider `C/N=C1/S/C(=C/c2cc(C)n(-c3cc(C(=O)O)cc(C(=O)O)c3)c2C)C(=O)N1C`, for which the Activity in experiment [1] stood at 89%; in experiment [2], 97%; in experiment [3] it was 106%; in experiment [4], 95%.
On to `CCc1ccccc1N1C(=O)/C(=C\c2cc(C)n(-c3cc(C(=O)O)cc(C(=O)O)c3)c2C)C(=O)NC1=S`, for which the Activity in experiment [3] is 85%; in [4] it was 68%.
For the molecule `Cc1cc(/C=C2/SC(=S)NC2=O)c(C)n1-c1cc(C(=O)O)cc(C(=O)O)c1`, the IC50 came to 95 µM in experiment [6] and 133 µM in experiment [10]. The MIC in experiment [7] was more than 256 µg/mL; in experiment [8], 128 µg/mL (≈ 318 µM); in [9], 256 µg/mL (≈ 636 µM). The Activity in experiment [4] is 89%.
On to `Cc1cc(/C=C2/S/C(=N/c3ccc(F)cc3)NC2=O)c(C)n1C`, for which the Activity in experiment [1] was 78%; in [2] it was 76%; in experiment [3], 82%; in experiment [4], 67%.
Regarding `Cc1cc(/C=C2/C(=O)NC(=S)N(c3ccccc3F)C2=O)c(C)n1-c1cc(C(=O)O)cc(C(=O)O)c1`, the Activity is 71% in experiment [1] and 60% in [3]. Moreover, the figures for the IC50 in experiment [5] and in experiment [11] were 311 µM and 344 µM, respectively.
Take `Cc1cc(/C=C2/S/C(=N/c3ccc(Br)cc3)NC2=O)c(C)n1-c1cc(C(=O)O)cc(C(=O)O)c1`: the IC50 in experiment [6] was 66 µM; in experiment [5] it was 89 µM; in experiment [10], 44 µM; in [11], 102 µM.
Consider `Cc1cc(/C=C2/S/C(=N/c3ccc(Cl)cc3)NC2=O)c(C)n1-c1cc(C(=O)O)cc(C(=O)O)c1`, for which the IC50 in experiment [6] was found to be 60 µM; in experiment [5], 93 µM; in experiment [10] it was 41 µM; in experiment [11] it was 89 µM. Also, the Ki amounted to 21 µM in experiment [12], 29 µM in experiment [13] and 39 µM in experiment [14].
On to `Cc1cc(/C=C2/C(=O)NC(=S)N(c3cccc(Cl)c3Cl)C2=O)c(C)n1-c1cc(C(=O)O)cc(C(=O)O)c1`, for which the Activity turned out to be 96% in [3] and 86% in [4].
In the case of `Cc1cc(/C=C2/C(=O)NC(=S)N(c3ccccc3)C2=O)c(C)n1-c1cc(C(=O)O)cc(C(=O)O)c1`, the MIC in [7], in experiment [8] and in experiment [9] was more than 256 µg/mL in each case. Moreover, the Activity in [3] turned out to be 75%; in experiment [4], 84%.
With GENTAMICIN, the MIC in [8] was 8 µg/mL.
`Cc1cc(/C=C2/C(=O)NC(=S)N(c3cccc(Cl)c3)C2=O)c(C)n1-c1cc(C(=O)O)cc(C(=O)O)c1`: the Activity in experiment [3] is 80%; in experiment [4], 78%.
On to `Cc1ccc(/N=C2\NC(=O)/C(=C\c3cc(C)n(-c4cc(C(=O)O)cc(C(=O)O)c4)c3C)S2)cc1`, for which the 50% inhibitory concentration (IC50) was 170 µM in experiment [6], 245 µM in [5], 107 µM in [10] and 201 µM in experiment [11].
On to `O=C1NC(=S)N(c2ccc(F)cc2)C(=O)/C1=C\c1ccc2c(c1)OCO2`, for which the Activity in experiment [1] was 102%; in [2], 97%; in [3] it was 108%; in [4], 81%.
With `Cc1cc(/C=C2/C(=O)NC(=O)N(c3ccc(Br)cc3)C2=O)c(C)n1-c1cc(C(=O)O)cc(C(=O)O)c1`, the Activity in [1] turned out to be 71%; in experiment [3], 62%; in experiment [4] it was 60%. Moreover, the IC50 in [5] turned out to be 211 µM.
In experiment [9], `CO/N=C(\C(=O)N[C@@H]1C(=O)N2C(C(=O)O)=C(COC(N)=O)CS[C@H]12)c1ccco1` [CEFUROXIME] showed an MIC of 0.5 µg/mL (≈ 1.18 µM).
On to `COc1ccc(/N=C2\NC(=O)/C(=C\c3cc(C)n(-c4cc(C(=O)O)cc(C(=O)O)c4)c3C)S2)cc1`, for which the IC50 in experiment [6] worked out at 168 µM; in [5], 303 µM; in [10], 172 µM; in [11], 281 µM.
In the case of `Cc1cc(/C=C2/S/C(=N/c3ccccc3)NC2=O)c(C)n1-c1cc(C(=O)O)cc(C(=O)O)c1`, the IC50 came to 206 µM in experiment [6], 494 µM in experiment [5], 205 µM in experiment [10] and 298 µM in experiment [11]. For the same molecule, the MIC is more than 256 µg/mL in experiment [7], more than 256 µg/mL in experiment [8] and 256 µg/mL (≈ 555 µM) in experiment [9].
With `Cc1cc(/C=C2/S/C(=N/c3cccc(Br)c3)NC2=O)c(C)n1C1CCCCC1`, the Activity turned out to be 79% in experiment [1], 91% in [2], 89% in experiment [3] and 93% in experiment [4].

Source of the values: ChEMBL document CHEMBL3351521, “Benzene-1,3-dicarboxylic acid 2,5-dimethylpyrrole derivatives as multiple inhibitors of bacterial Mur ligases (MurC-MurF)” (Bioorg Med Chem, 2014).
